Test results from BindingDB's records for doi:10.1016/j.bmcl.2008.05.016 (Astrazeneca R&D Boston, 2008).

assay: Inhibition of Cdk1

Row | SMILES | IC50
1 | CN(C)c1ccc(-c2cc(C(=O)N[C@H]3CCCNC3)c(NC(N)=O)s2)cc1 [(S)-1-(5-(4-(dimethylamino)phenyl)-3-(piperidin-3-ylcarbamoyl)thiophen-2-yl)urea] | 8.4 µM
2 | NC(=O)Nc1sc(-c2cccc(F)c2)cc1C(=O)N[C@H]1CCCNC1 [1-(3-((S)-piperidin-3-ylcarbamoyl)-5-(3-fluorophenyl)thiophen-2-yl)urea] | 5.6 µM
3 | CCN(CC)CCOc1ccc(-c2cc(C(=O)NC3CCNCC3)c(NC(N)=O)s2)cc1 [1-(5-(4-(2-(diethylamino)ethoxy)phenyl)-3-(piperidin-4-ylcarbamoyl)thiophen-2-yl)urea] | > 69 µM
4 | CCN(CC)CCOc1ccc(-c2cc(C(=O)NC3CCNC3)c(NC(N)=O)s2)cc1 (configuration not stated) [1-(5-(4-(2-(diethylamino)ethoxy)phenyl)-3-(pyrrolidin-3-ylcarbamoyl)thiophen-2-yl)urea] | > 100 µM
5 | NC(=O)Nc1sc(-c2ccc(C(=O)N3CCCCC3)cc2)cc1C(=O)N[C@H]1CCCNC1 [(S)-1-(3-(piperidin-3-ylcarbamoyl)-5-(4-(piperidine-1-carbonyl)phenyl)thiophen-2-yl)urea] | 10.8 µM
6 | CCN(CC)CCOc1ccc(-c2cc(C(=O)Nc3cccnc3)c(NC(N)=O)s2)cc1 [1-(5-(4-(2-(diethylamino)ethoxy)phenyl)-3-(pyridin-3-ylcarbamoyl)thiophen-2-yl)urea] | 44 µM
7 | Cc1ccc(-c2cc(C(=O)N[C@H]3CCCNC3)c(NC(N)=O)s2)cc1 [(S)-1-(3-(piperidin-3-ylcarbamoyl)-5-p-tolylthiophen-2-yl)urea] | 5.5 µM
8 | NC(=O)Nc1sc(-c2cccc(Cl)c2)cc1C(=O)N[C@H]1CCCNC1 [1-(3-((S)-piperidin-3-ylcarbamoyl)-5-(3-chlorophenyl)thiophen-2-yl)urea] | 8.8 µM

Now those with a lower IC50, led by results:

Row | IC50 | SMILES
9 | 3.3 µM | NC(=O)Nc1sc(-c2ccc(F)cc2)cc1C(=O)N[C@H]1CCCNC1 [(S)-1-(5-(4-fluorophenyl)-3-(piperidin-3-ylcarbamoyl)thiophen-2-yl)urea]
10 | 1.8 µM | NC(=O)Nc1sc(-c2ccncc2)cc1C(=O)N[C@H]1CCCNC1 [(S)-1-(3-(piperidin-3-ylcarbamoyl)-5-(pyridin-4-yl)thiophen-2-yl)urea]
11 | 3.7 µM | CN(C)C(=O)c1ccc(-c2cc(C(=O)N[C@H]3CCCNC3)c(NC(N)=O)s2)cc1 [(S)-1-(5-(4-(dimethylcarbamoyl)phenyl)-3-(piperidin-3-ylcarbamoyl)thiophen-2-yl)urea]
12 | 2.2 µM | CS(=O)(=O)c1ccc(-c2cc(C(=O)N[C@H]3CCCNC3)c(NC(N)=O)s2)cc1 [(S)-1-(5-(4-(methylsulfonyl)phenyl)-3-(piperidin-3-ylcarbamoyl)thiophen-2-yl)urea]
